Test results from the C3SDB collision cross section collection.

How the values were obtained:
[1] = instrument: DT, stepped-field
[2] = instrument: DT, single field, calibrated with Agilent tune mix (Agilent)
[3] = instrument: DT, single field, calibrated with Agilent tune mix (Agilent); remark: listed apart in the source

Row | SMILES | collision cross section (N2) ([1]; [M+H]+) | collision cross section (N2) ([1]; [M+Na]+) | other results
1 | Cn1cnc(CCN)c1 [1-Methylhistamine] | 122.56 Å² |  | collision cross section (N2) ([2]; [M+H]+): 121.3 Å²
2 | Cn1cncc1CCN [3-Methylhistamine] | 126.53 Å² |  | collision cross section (N2) ([2]; [M+H]+): 123.8 Å²
3 | C[C@]12CCC(=O)C=C1CC[C@@H]1[C@@H]2CC[C@]2(C)C(=O)CC[C@@H]12 [Androstenedione] | 183.95 Å² | 204.73 Å² | collision cross section (N2) ([2]; [M+H]+): 173.3 Å²
4 | CCCCCCCCCCCCCCCC(=O)N[C@@H](CO)[C@H](O)CCCCCCCCCCCCCCC [Cer(34:0)] |  |  | collision cross section (N2) ([3]; [M+HCOO]-): 251.8 Å²
5 | CCCCCCCCCCCCC=CC[C@@H](O)[C@H](CO)NC(=O)CCCCCCCCCCCCCCC [Cer(34:1)] |  |  | collision cross section (N2) ([3]; [M+HCOO]-): 250.4 Å²; collision cross section (N2) ([3]; [M+H]+): 253.6 Å²
6 | CCCCCCCCCCCCC=CC[C@@H](O)[C@H](CO)NC(=O)CCCCCCCCCCCCCCCCC [Cer(36:1)] |  |  | collision cross section (N2) ([3]; [M+HCOO]-): 257.6 Å²; collision cross section (N2) ([3]; [M+H]+): 261.6 Å²; collision cross section (N2) ([3]; [M+Na]+): 268.6 Å²; collision cross section (N2) ([3]; [M-H]-): 248.6 Å²
7 | CCCCCCCCCCCCCCCCCCCCCC(=O)N[C@@H](CO)[C@H](O)CCCCCCCCCCCCCCC [Cer(40:0)] |  |  | collision cross section (N2) ([3]; [M+HCOO]-): 272 Å²; collision cross section (N2) ([3]; [M+H]+): 274.7 Å²; collision cross section (N2) ([3]; [M-H]-): 262.1 Å²
8 | CCCCCCCCCCCCC=CC[C@@H](O)[C@H](CO)NC(=O)CC=CCCCCCCCCCCCCCCCCCCC [Cer(41:2)] |  |  | collision cross section (N2) ([3]; [M+H]+): 273.5 Å²; collision cross section (N2) ([3]; [M+Na]+): 273.8 Å²
9 | CCCCCCCCCCCCC=CC[C@@H](O)[C@H](CO)NC(=O)CCCCCCCCCCCCCCCCCCCCCCCCC [Cer(44:1)] |  |  | collision cross section (N2) ([3]; [M+H]+): 284.8 Å²; collision cross section (N2) ([3]; [M+Na]+): 285 Å²
10 | C[N+](C)(C)CCOP(=O)([O-])OP(=O)(O)OC[C@H]1O[C@@H](n2ccc(N)nc2=O)[C@H](O)[C@@H]1O [Cytidine 5'-diphosphocholine] | 198.86 Å² | 208.98 Å² | collision cross section (N2) ([2]; [M+H]+): 197.6 Å²; collision cross section (N2) ([2]; [M-H]-): 200.64 Å²
11 | OC[C@H]1O[C@@H](O[C@H]2[C@H](O)[C@@H](O)[C@H](O)O[C@@H]2CO)[C@H](O)[C@@H](O)[C@H]1O [D-Lactose] |  | 178.83 Å² | collision cross section (N2) ([2]; [M+Na]+): 175.1 Å²
12 | CC/C=C\C/C=C\C/C=C\C/C=C\C/C=C\C/C=C\CCC(=O)O[C@@H](CO)COC(=O)CCCCCCCCCCCCCCCCCCC [DG(42:6)] |  |  | collision cross section (N2) ([3]; [M+NH4]+): 280.3 Å²
13 | N[C@@H](CCC(=O)N[C@@H](CS)C(=O)NCC(=O)O)C(=O)O [Glutathione] |  | 168.23 Å² | collision cross section (N2) ([2]; [M+H]+): 167.4 Å²
14 | OC[C@H]1O[C@H](OC[C@H]2OC(O)[C@H](O)[C@@H](O)[C@@H]2O)[C@H](O)[C@@H](O)[C@@H]1O (some centres undefined) [Isomaltose] |  | 178.02 Å² | collision cross section (N2) ([2]; [M+Na]+): 177.3 Å²; collision cross section (N2) ([2]; [M-H]-): 171.96 Å²
15 | O=c1c(O)c(-c2ccc(O)cc2)oc2cc(O)cc(O)c12 [Kaempferol] | 165.99 Å² | 187.2 Å² | collision cross section (N2) ([2]; [M+H]+): 162.9 Å²; collision cross section (N2) ([2]; [M-H]-): 160.32 Å²
16 | CCCC[C@H](N)C(=O)O [L-Norleucine] | 142.63 Å² |  | collision cross section (N2) ([2]; [M-H]-): 129.02 Å²
17 | CCCCCCCCCCCCCCC(=O)OC[C@@H](O)COP(=O)([O-])OCC[N+](C)(C)C [LPC(15:0)] |  |  | collision cross section (N2) ([3]; [M+H]+): 225 Å²
18 | CCCCCCCCCCCCCCCCC(=O)OC[C@@H](O)COP(=O)([O-])OCC[N+](C)(C)C [LPC(17:0)] |  |  | collision cross section (N2) ([3]; [M+HCOO]-): 237.7 Å²
19 | CCCCC/C=C\C/C=C\CCCCCCCCCC(=O)OC[C@@H](O)COP(=O)([O-])OCC[N+](C)(C)C [LPC(20:2)] |  |  | collision cross section (N2) ([3]; [M+H]+): 233.9 Å²
20 | OC[C@H]1O[C@H](O[C@H]2[C@H](O)[C@@H](O)[C@@H](O[C@H]3[C@H](O)[C@@H](O)C(O)O[C@@H]3CO)O[C@@H]2CO)[C@H](O)[C@@H](O)[C@@H]1O (some centres undefined) [Maltotriose] |  | 212.54 Å² | collision cross section (N2) ([2]; [M+Na]+): 212.7 Å²
21 | CC(=O)[C@H]1CC[C@H]2[C@@H]3CC=C4C[C@@H](O)CC[C@]4(C)[C@H]3CC[C@]12C [Pregnenolone] | 177.25 Å² | 216.16 Å² | collision cross section (N2) ([2]; [M+H]+): 174 Å²; collision cross section (N2) ([2]; [M-H]-): 182.86 Å²
22 | CCCCC[C@H](O)/C=C/[C@H]1C(=O)C[C@H](O)[C@@H]1C/C=C\CCCC(=O)O [Prostaglandin D2] |  | 196.63 Å² | collision cross section (N2) ([2]; [M+Na]+): 192.4 Å²; collision cross section (N2) ([2]; [M-H2O-H]-): 186.17 Å²
23 | CCCCC[C@H](O)/C=C/[C@H]1[C@H](O)CC(=O)[C@@H]1C/C=C\CCCC(=O)O [Prostaglandin E2] |  | 198.53 Å² | collision cross section (N2) ([2]; [M+Na]+): 196.8 Å²; collision cross section (N2) ([2]; [M-H2O-H]-): 183.57 Å²
24 | CCCCC[C@@H](/C=C/[C@@H]1[C@@H](C/C=C\CCCC(=O)O)[C@@H]2C[C@H]1OO2)OO [Prostaglandin G2] |  | 199.3 Å² | 
25 | COc1cc(O)c2c(=O)c(-c3ccc(O)cc3)coc2c1 [Prunetin] | 166.26 Å² | 181.44 Å² | 

Row | SMILES | collision cross section (N2) ([1]; [M+H]+) | collision cross section (N2) ([1]; [M+Na]+) | other results
26 | c1ncc2[nH]cnc2n1 [Purine] | 125.4 Å² |  | collision cross section (N2) ([2]; [M+H]+): 121.8 Å²
27 | Cc1ncc(CO)c(C=O)c1O [Pyridoxal] | 135.42 Å² |  | collision cross section (N2) ([2]; [M+H]+): 130.5 Å²
28 | Cc1ncc(CO)c(CO)c1O [Pyridoxine] | 135.69 Å² | 148.49 Å² | collision cross section (N2) ([2]; [M+H]+): 134.6 Å²; collision cross section (N2) ([2]; [M-H]-): 130.75 Å²
29 | O=C(O)c1cccnc1C(=O)O [Quinolinic Acid] | 138.98 Å² |  | 
30 | OC[C@H]1O[C@H](OC[C@H]2O[C@H](O[C@]3(CO)O[C@H](CO)[C@@H](O)[C@@H]3O)[C@H](O)[C@@H](O)[C@@H]2O)[C@H](O)[C@@H](O)[C@H]1O [Raffinose] |  | 208.72 Å² | collision cross section (N2) ([2]; [M+H]+): 209 Å²
31 | CC/C=C\C[C@H](O)/C=C/C=C\C=C\C=C\[C@@H](O)[C@@H](O)C/C=C\CCC(=O)O [Resolvin D1] |  | 197.87 Å² | 
32 | Cc1cc2nc3c(=O)[nH]c(=O)nc-3n(C[C@H](O)[C@H](O)[C@H](O)COP(=O)(O)O)c2cc1C [Riboflavin 5'-Monophosphate] | 201.48 Å² | 210.66 Å² | 
33 | Cc1cc2nc3c(=O)[nH]c(=O)nc-3n(C[C@H](O)[C@H](O)[C@H](O)CO)c2cc1C [Riboflavin] | 192.43 Å² | 199.4 Å² | 
34 | C=C(C)[C@H]1Cc2c(ccc3c2O[C@@H]2COc4cc(OC)c(OC)cc4[C@@H]2C3=O)O1 [Rotenone] | 199.63 Å² | 213.17 Å² | 
35 | N[C@@H](CSCC(=O)O)C(=O)O [S-Carboxymethyl-L-cysteine] | 141.13 Å² | 142.13 Å² | collision cross section (N2) ([2]; [M+H]+): 137.2 Å²
36 | OC[C@H]1O[C@H](OC[C@H]2O[C@H](OC[C@H]3O[C@H](O[C@]4(CO)O[C@H](CO)[C@@H](O)[C@@H]4O)[C@H](O)[C@@H](O)[C@@H]3O)[C@H](O)[C@@H](O)[C@H]2O)[C@H](O)[C@@H](O)[C@H]1O [Stachyose] |  | 236.4 Å² | collision cross section (N2) ([2]; [M+Na]+): 234.1 Å²; collision cross section (N2) ([2]; [M-H]-): 221.12 Å²
37 | COc1ccc(-c2cc(=O)c3c(OC)c(OC)c(OC)c(OC)c3o2)cc1 [Tangeritin] | 187.9 Å² | 208.15 Å² | 
38 | C[C@]12CC[C@H]3[C@@H](CCC4=CC(=O)CC[C@@]43C)[C@@H]1CC[C@@H]2O [Testosterone] | 183.82 Å² | 206.07 Å² | collision cross section (N2) ([2]; [M+H]+): 172.7 Å²; collision cross section (N2) ([2]; [M-H]-): 175.64 Å²
39 | CN(C)[C@@H]1C(=O)C(C(N)=O)=C(O)[C@@]2(O)C(=O)C3=C(O)c4c(O)cccc4[C@@](C)(O)[C@H]3C[C@@H]12 [Tetracycline] | 198.48 Å² | 212.5 Å² | 
40 | CCCCC[C@H](O)/C=C/[C@H]1OC(O)C[C@H](O)[C@@H]1C/C=C\CCCC(=O)O (some centres undefined) [Thromboxane B2] |  | 202.08 Å² | 
41 | CC(C)[C@]12CC(=O)[C@H](C)[C@H]1C2 [Thujone] | 141.82 Å² |  | 
42 | Cc1cn([C@H]2C[C@H](O)[C@@H](CO)O2)c(=O)[nH]c1=O [Thymidine] |  | 164.51 Å² | collision cross section (N2) ([2]; [M+Na]+): 161 Å²; collision cross section (N2) ([2]; [M-H]-): 151.22 Å²
43 | NC(=O)[C@@H]1CCCN1C(=O)[C@H](Cc1cnc[nH]1)NC(=O)[C@@H]1CCC(=O)N1 [Thyrotropin-releasing hormone] | 181 Å² | 184.12 Å² | 
44 | O=c1ccc2ccc(O)cc2o1 [Umbelliferone] |  | 154.46 Å² | 
45 | O=c1ccn([C@@H]2O[C@H](COP(=O)(O)O)[C@@H](O)[C@H]2O)c(=O)[nH]1 [Uridine 5'-Monophosphate] | 169.81 Å² | 175.14 Å² | 
46 | O=C(O)/C=C/c1cnc[nH]1 [Urocanate] | 137.54 Å² |  | 
47 | CC(C)=CCC/C(C)=C/CC/C(C)=C/CC/C(C)=C/CC1=C(C)C(=O)c2ccccc2C1=O [Vitamin K2] | 198.66 Å² |  | 
48 | C[C@@H]1NC(=O)N[C@@H]1CCCCCC(=O)O [d-Desthiobiotin] | 145.78 Å² | 159.12 Å² | 
49 | O=P(O)(O)OC[C@H](O)CO [sn-Glycerol 3-phosphate] |  | 142.16 Å² | 
